US20220288082A1, “TREATMENT OF DEMENTIA” (Macquarie University, priority 2019, published 2022)

What was measured:
[1] = system: C57B^1/6 primary mouse neurons; assay: Aβ toxicity in cultured primary neurons (dendritic spine loss, cell viability); assay type: cell-based; settings: pre-treatment, 0.05 μM oligomeric Aβ
Experimental: C57B^1/6 primary mouse neurons were treated with Compound 1 shown below (also referred to herein as LIMKi) together with 0.05 μM oligomeric Aβ (oAβ ) and determined loss of dendritic spines and cell viability.
Aβ treated neurons presented with loss of spines and reduced viability. […] Next, the inventors determined the potential short-term effects of Compound 1 in vivo. […] Next, the inventors tested the effects of acute Compound 1 administration on neuronal network activity in APP23 mice. […] Furthermore, CFC 1 hour after Compound 1 administration was re-established (data not shown). […] Thus, inhibition of LIMK1 with Compound 1 conferred protection from Aβ toxicity in neurons and from excitotoxicity in vivo. Furthermore, treatment of APP23 with Compound 1 corrected network aberrations including CFC.

[2] = system: APP23 mice; assay: Hippocampal telemetric EEG recordings (spikes, cross frequency coupling); assay type: in vivo, mouse; settings: for amplitude phase in EEG recordings / modulation index of cross frequency coupling / spike frequency / hypersynchronous discharges in EEG: n=8; for spike frequency / hypersynchronous discharges in EEG: i.p., 2 hours pre vs 2 hours post administration
Experimental: (§1) FIG. 4. LIMK1 inhibition reduced susceptibility to induced seizures and mitigated neuronal network hypersynchronicity and memory deficits in a mouse model of Alzheimer's disease. (A) Excitotoxic seizures were induced by acute intraperitoneal injection of 50 mg/kg body weight pentylenetetrazole (PTZ) followed by timing and scoring (0=no seizures to 7=terminal status epilepticus) of seizure development. Mice were treated with vehicle or 10 mg/kg body weight LIMK1 inhibitor (LIMKi) intraperitoneally 30 minutes prior to seizure induction. […] Only vehicle-treated mice develop severe seizure stages over time (i.e. score=5). […] (B) Compound hippocampal electroencephalography (EEG) recordings over 4 hours in non-transgenic (wt) and APP transgenic (APP23) mice including 2 hours before (Pre) and 2 hours after (Post) LIMKi or vehicle administration. Time of intraperitoneal LIMKi and vehicle administration is indicated with an arrow. […] Frequent spikes pre and post vehicle administration in APP23 mice. In contrast, LIMKi injection mitigates spike activity in APP23 post injection. […] (E) Chronic Limkl inhibition reverts memory deficits in AD mice. APP23 mice develop memory deficits in the Morris water maze (MWM) paradigm at 3 months of age. Treatment with 10 mg/kg LIMKi i.p. (3-4 times per week) was initiated at 3 months of age and continued for =4 months before MWM testing at 7 months of age. […] For bar graphs in (C) and (E), from left to right: non-Tg +vehicle; non-Tg+LIMKi; APP23+vehicle; APP23+LIMKi.
Electroencephalography. Hippocampal EEG recordings were done with implanted telemetric electrodes (D.S.I.) as previously described (Ittner et al., 2014, Acta neuropathologica communications 2, 149). All recordings were done with mice individually housed in their home cages one week after implantation of transmitters. Compound administration was done intraperitoneally during transient restraining of mice. Vehicle for the LIMK1 inhibitor LIMKi contained hydroxypropyl methylcellulose 606 (HPMC 606) with polyvinylpyrrolidone k17 (PVP k17) and tween 80 in a proportion of 0.5%, 0.5%, 0.1%, respectively. Spike analysis was done with the Neuroscore software module (D.S.I.) as previously described (Ittner et al., 2016, Science 354, 904-908). Cross frequency coupling of theta and gamma waves was performed as previously described (Ittner et al., 2016, Science 354, 904-908).

[3] = system: APP23 mice; assay: Morris water maze memory testing after chronic treatment; assay type: in vivo, mouse
Experimental: as §1
Memory testing. Memory of mice was assessed in the water T maze paradigm and Morris water maze following published protocols (Ittner et al., 2010, Cell 142, 387-397; Ke et al., 2015, Acta Neuropathol 130, 661-678). Chronic treatment of mice was done by 3-4 times per week intraperitoneal injection of 10 mg/kg LIMKi or vehicle (0.5% hydroxypropyl methylcellulose 606 (HPMC 606), 0.5% polyvinylpyrrolidone k17 (PVP k17) and 0.1% tween 80) starting at 3 months of age and continued until 7 months of age. All mice were acclimatized to the test rooms prior to testing.
Encouraged by the short-term effects of Compound 1 in neurons and APP23 mice (Example 3), the inventors tested whether long-term treatment could improve memory deficits in APP23 mice. 3-month old APP23 mice were treated for four months before being subjected to memory testing in the MWM. APP23 mice present with significant memory deficits at 3 months of age, that progress with age (Ittner et al., 2016, Science 354:904-908). An intermittent treatment schedule was chosen to avoid potential inhibition of astrocyte-mediated AP clearance that could mask therapeutic effects. At 7 months of age, vehicle-treated APP23 mice presented with significant memory deficits as compared to vehicle-treated non-transgenic mice (FIG. 4E).

[4] = target: T1, LIMK1 (Homo sapiens, UniProt P53667); assay: LIMK1 activity assay (commercial, Promega); assay type: biochemical; settings: in vitro; LIMKi at 100 μm, 10 μm, 1 μm, 0.1 μm; DMSO did not inhibit
T1 construct: purchased Promega
T1 sequence (P53667 whole entry): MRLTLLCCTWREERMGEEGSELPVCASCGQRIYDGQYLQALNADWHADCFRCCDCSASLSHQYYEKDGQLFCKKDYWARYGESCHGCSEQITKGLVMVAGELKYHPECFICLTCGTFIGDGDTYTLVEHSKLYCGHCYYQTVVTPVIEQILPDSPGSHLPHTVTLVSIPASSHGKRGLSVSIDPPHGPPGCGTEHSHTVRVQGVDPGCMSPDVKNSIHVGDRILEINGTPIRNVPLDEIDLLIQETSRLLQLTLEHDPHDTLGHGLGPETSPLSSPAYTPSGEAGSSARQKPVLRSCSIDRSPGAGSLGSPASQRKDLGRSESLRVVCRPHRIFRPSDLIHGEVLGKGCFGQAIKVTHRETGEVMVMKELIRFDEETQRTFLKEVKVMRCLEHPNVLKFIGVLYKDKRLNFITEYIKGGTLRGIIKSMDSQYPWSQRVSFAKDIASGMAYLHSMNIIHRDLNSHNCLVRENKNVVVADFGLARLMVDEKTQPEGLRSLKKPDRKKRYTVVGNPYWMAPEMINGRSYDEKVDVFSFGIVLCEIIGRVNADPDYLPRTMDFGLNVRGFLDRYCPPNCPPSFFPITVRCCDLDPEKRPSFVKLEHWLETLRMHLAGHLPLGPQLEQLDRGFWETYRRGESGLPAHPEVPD
Text: LIMK1 activity assay. LIMK1 activity in the absence or presence of different concentrations of LIMKi (or DMSO) was determine with a commercial assay following the manufacturer's instructions (Promega).

[5] = system: C57B^1/6 mice; assay: PTZ-induced excitotoxic seizure model; assay type: in vivo, mouse; settings: for mean seizure severity: n=9
Experimental: as §1
Seizure model. Excitotoxic seizure were induced in mice by intraperitoneal injection of 50 mg/kg body weight pentylenetetrazole followed by observation in a square area (40×40 cm). Scoring of seizures was done as previously described (Ittner et al., 2010, Cell 142, 387-397). For LIMKi-treated mice, scoring was adjusted by combining the severe seizure scores 5 to 7 into a single score of 5. For both scales, minor to moderate seizures are reflected by scores <5.

[6] = APP23 mice, 1 hour after administration
[7] = APP23 mice, 1 hour after administration, listed as LIMKi
[8] = 10 mg/kg i.p. 30 minutes prior to 50 mg/kg PTZ, vs vehicle

## Cc1c[nH]c2ncnc(N3CCN(/C(=N\C#N)Nc4cccc(Br)c4)[C@@H](C)C3)c12 [Compound 1]
[1]
  Aβ-induced death of cultured neurons (cell viability): dose-dependent protection
  Aβ-induced dendritic spine loss: dose-dependent protection
[2]; APP23 mice, 1 hour after administration, data not shown
  cross frequency coupling (CFC): re-established
[2]; [6]
  amplitude phase in EEG recordings: normalized
  modulation index of cross frequency coupling: normalized
[2]; [7]
  amplitude phase in EEG recordings: corrected 1 hour after LIMKi delivery and no longer different from wt controls
  modulation index of cross frequency coupling: corrected 1 hours after LIMKi administration and no longer different from wt controls
[2]; APP23 mice
  spike frequency / hypersynchronous discharges in EEG: hypersynchronicity significantly decreased
[2]; APP23 mice, listed as LIMKi
  spike frequency / hypersynchronous discharges in EEG: significantly reduced spike frequency
[2]; non-transgenic (wt) mice, pre and post injection
  spike activity in EEG: No overt spike activity
[3]; APP23 mice, 10 mg/kg i.p. 3-4 times per week for 4 months, n=8-10
  time in target quadrant during MWM probe trials: no significant differences to controls
[3]; APP23 mice, 10 mg/kg i.p. 3-4 times per week from 3 to 7 months of age
  learning in Morris water maze: improved learning of APP23 mice to vehicle control levels
[3]; APP23 mice, after four months of treatment, tested at 7 months of age
  memory performance in MWM: improved memory performance
[3]; non-transgenic control mice, 10 mg/kg i.p. 3-4 times per week for 4 months, 10 mg/kg
  learning in Morris water maze: delayed learning
[3]; non-transgenic control mice, 10 mg/kg i.p. 3-4 times per week for 4 months, listed as LIMKi, 10 mg/kg
  learning in Morris water maze: moderately delayed learning
[4]
  LIMK1 activity: inhibition of the kinase by LIMKi at all concentrations tested
[5]; 10 mg/kg 30 minutes prior to PTZ, C57B1/6 mice
  latency to develop severe seizures: increased the latency to develop severe seizures
[5]; [8]
  latency to develop lower grade seizures (score<5): Delayed latency to develop lower grade seizures
  mean seizure severity: significantly reduced mean seizure severity
[5]; 10 mg/kg i.p. 30 minutes prior to 50 mg/kg PTZ, vs vehicle, listed as LIMKi
  mean seizure severity: Significantly reduced seizure severity
